Reference: patent US20040029930A1, “Fungicidal mixtures based on amide compounds” (priority 2000, published 2004)

Tested on: Plasmopara viticola
Assay: Activity against Peronospora in grape vines caused by Plasmopara viticola (protective spray, potted vines)
Type: in vivo
Conditions: individual active ingredient, vine cultivar Müller-Thurgau
Procedure: The active ingredients, separately or together, are formulated as a 10% emulsion in a mixture of 63% by weight of cyclohexanone and 27% by weight of emulsifier, and diluted with water to the desired concentration.
Evaluation is carried out by determining the infected leaf areas in percent. These percentages are converted into efficacies. The efficacy (W) is calculated as follows using Abbot's formula: […]
α corresponds to the fungal infection of the treated plants in % and β corresponds to the fungal infection of the untreated (control) plants in % An efficacy of 0 means that the infection level of the treated plants corresponds to that of the untreated control plants; an efficacy of 100 means that the treated plants were not infected.
The expected efficacies of the mixtures of the active ingredients were determined using Colby's formula [R. S. Colby, Weeds 15, 20-22 (1967)] and compared with the observed efficacies.
E=x+y−x·y/100 Colby's formula
E expected efficacy, expressed in % of the untreated control, when using the mixture of the active ingredients A and B at the concentrations a and b […]
X efficacy, expressed in % of the untreated control, when using active ingredient A at a concentration of a […]
Y efficacy, expressed in % of the untreated control, when using active ingredient B at a concentration of b […]
Activity Against Peronospora in Grape Vines Caused by Plasmmopara viticola […]
Leaves of potted vines of the cultivar “Müller-Thurgau” were sprayed to runoff point with an aqueous preparation of active ingredient which had been prepared using a stock solution comprising 10% of active ingredient, 85% of cyclohexanone and 5% of emulsifier. The next day, the undersides of the leaves were inoculated with an aqueous zoospore suspension of Plasmopara viticola. The vines were then placed firstly for 48 hours in a water-vapor-saturated chamber at 24° C. and then for 5 days in a greenhouse at 20-30° C. After this period of time, the plants were again placed in a moist chamber for 16 hours to accelerate the sporangiophore eruption. The extent to which the undersides of the leaves had been infected was then determined visually.

With `Cc1ccc(-c2c(Cl)nc(C#N)n2S(=O)(=O)N(C)C)cc1` [cyazofamid] the “Efficacy in % of the untreated control” value (1 ppm in the spray liquor) was 73%, the “Efficacy in % of the untreated control” value (4 ppm in the spray liquor) was 79% and the “Efficacy in % of the untreated control” value (8 ppm in the spray liquor) was 84%. The “Efficacy in % of the untreated control” value (16 ppm in the spray liquor) was 89%.
